According to PMC10499581 (Journal of Ginseng Research, 2023):
One block for each molecule: values may come before it.

What was measured:
PURA = target: T1, PURA (Rattus norvegicus, UniProt A0A8I5YBE8); experiment: biolayer interferometry, single concentration; type: binding; conditions: 30 °C, His-tagged PURA immobilized
T1 sequence (A0A8I5YBE8 1-321): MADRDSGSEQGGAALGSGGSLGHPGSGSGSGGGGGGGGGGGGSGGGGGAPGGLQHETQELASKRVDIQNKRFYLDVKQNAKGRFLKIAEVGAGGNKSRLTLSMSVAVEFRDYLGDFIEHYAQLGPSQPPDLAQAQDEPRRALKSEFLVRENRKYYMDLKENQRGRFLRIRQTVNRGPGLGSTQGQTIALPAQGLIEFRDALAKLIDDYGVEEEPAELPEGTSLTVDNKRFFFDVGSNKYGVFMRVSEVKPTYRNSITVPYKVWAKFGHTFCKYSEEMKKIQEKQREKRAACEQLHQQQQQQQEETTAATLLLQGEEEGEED

[1] = target: T2, Pur-alpha (PURA), wild type, recombinant His-tagged (rat, UniProt A0A8I5YBE8 1-321); experiment: BLI
T2 sequence (looked up): T1 sequence (A0A8I5YBE8 1-321)

Molecule: CC(C)=CCC[C@](C)(O[C@@H]1O[C@H](CO)[C@@H](O)[C@H](O)[C@H]1O)[C@H]1CC[C@]2(C)[C@@H]1[C@H](O)C[C@@H]1[C@@]3(C)CC[C@H](O)C(C)(C)[C@@H]3CC[C@]12C [CK]
wavelength shift at 300 μM (PURA): The direct binding strength of PURA to Rb1,Re, Rh1, Rg1, F1, Rd, Rh2,CK, PPD

Molecule: CC(C)=CCC[C@](C)(O)[C@H]1CC[C@]2(C)[C@@H]1[C@H](O)C[C@@H]1[C@@]3(C)CC[C@H](O[C@@H]4O[C@H](CO)[C@@H](O)[C@H](O)[C@H]4O)C(C)(C)[C@@H]3CC[C@]12C [Rh2]
wavelength shift at 300 μM (PURA): The direct binding strength of PURA to Rb1,Re, Rh1, Rg1, F1, Rd, Rh2,CK, PPD

Molecule: CC(C)=CCC[C@](C)(O[C@@H]1O[C@H](CO)[C@@H](O)[C@H](O)[C@H]1O)[C@H]1CC[C@]2(C)[C@@H]1[C@H](O)C[C@@H]1[C@@]3(C)CC[C@H](O)C(C)(C)[C@@H]3[C@@H](O)C[C@]12C [F1]
wavelength shift at 300 μM (PURA): The direct binding strength of PURA to Rb1,Re, Rh1, Rg1, F1, Rd, Rh2,CK, PPD

Molecule: CC(C)=CCC[C@](C)(O)[C@H]1CC[C@]2(C)[C@@H]1[C@H](O)C[C@@H]1[C@@]3(C)CC[C@H](O)C(C)(C)[C@@H]3[C@@H](O[C@@H]3O[C@H](CO)[C@@H](O)[C@H](O)[C@H]3O)C[C@]12C [Rh1]
wavelength shift at 300 μM (PURA): The direct binding strength of PURA to Rb1,Re, Rh1, Rg1, F1, Rd, Rh2,CK, PPD

Kd [1]: 1930 nM
B1: Pur-beta (PURB) (natural protein, UniProt Q68A21 1-315, looked up)
chain: MADGDSGSERGGGGPGSFQPAPRGGGGPGGEQETQELASKRLDIQNKRFYLDVKQNAKGRFLKIAEVGAGGSKSRLTLSMAVAAEFRDSLGDFIEHYAQLGPSSPEQLAAGAEEGGGPRRALKSEFLVRENRKYYLDLKENQRGRFLRIRQTVNRGGGGFGGGPGPGGLQSGQTIALPAQGLIEFRDALAKLIDDYGGEDDELAGGPGGGAGGPGGGLYGELPEGTSITVDSKRFFFDVGCNKYGVFLRVSEVKPSYRNAITVPFKAWGKFGGAFCRYADEMKEIQERQRDKLYERRGGGSGGGDESEGEEVDED
